Columns and labels:
EphA4 kinase = target: T1, EphA4 kinase (Homo sapiens, UniProt P54764); experiment: EphA4 kinase enzymatic assay (TR-FRET); type: biochemical; conditions: for IC50: 25 μM ATP, recombinant His6-TEV-EphA4 (aa. 615-911); for EphA4 Kinase max inhibition in %: maximum percent inhibition (value in parentheses)
T1 construct: His6-TEV-EphA4 (36 KD) (aa. 615-911); His6 (N); TEV cleavage site (N); made in house; host or cells: Sf9 (baculovirus)
T1 sequence (P54764 615-911): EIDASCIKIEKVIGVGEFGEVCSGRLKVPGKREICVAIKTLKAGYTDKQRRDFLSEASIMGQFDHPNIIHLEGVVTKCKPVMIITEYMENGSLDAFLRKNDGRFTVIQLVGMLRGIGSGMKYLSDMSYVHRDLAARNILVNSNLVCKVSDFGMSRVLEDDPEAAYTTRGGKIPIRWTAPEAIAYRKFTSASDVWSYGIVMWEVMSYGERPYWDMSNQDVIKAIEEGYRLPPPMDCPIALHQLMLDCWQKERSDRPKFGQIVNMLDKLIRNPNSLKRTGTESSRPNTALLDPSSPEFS
Method: Recombinant EphA4 kinase His6-TEV-EphA4 (36 KD) (aa. 615-911) was expressed in Sf9 using baculovirus expression system. Hi-tagged protein was purified by high performance liquid chromatography in two step, using a His Trap HP column and a heparin column. The potency of compounds to inhibit EphA4 kinase phosphorylation was measured by an enzymatic assay based on time resolved fluorescence energy transfer assay format (TR-FRET), using Eu-W1024 anti-pTyr antibody (Perkin Elmer, USA) as a donor and SureLight APC (Perkin Elmer, USA) as an acceptor.
Biotinylated Poly(Glu Tyr) peptide (50 nM) was incubated in 384-well with 25 μM ATP (Sigma) and 10 ng EphA4 kinase in NEBuffer (New England Biolabs) for 60 minutes at rt. The reaction was stopped by 15 mM of EDTA solution for 10 minutes at rt. The detection mixture containing 0.5 nM Eu-W1024 anti-pTyr antibody (Perkin Elmer, USA) and 50 nM SureLight APC (Perkin Elmer, USA) was added to the wells and the plate was incubated for 30 min at rt, while protected from light. Energy transfer signal was measured using a Victor 2V (excitation filter 340, emission filter 615 and 665, delay time 50 μs). Results were expressed as ratios of the absorbencies 665/615.
(§1) Compounds were titrated in duplicate at 11 points concentration starting at 100 μM with a 3 fold increment. Compounds were diluted in DMSO. […] Percentage inhibition for each compound was then calculated based on the value of the 100% inhibition. Concentration-response curves were represented and the concentrations for 50% inhibition (IC50) were calculated.

[1] = test system: C2C12 mouse myoblast cell line; experiment: Scratch wound assay, C2C12 cells; type: cell-based; conditions: for IC50: Mus musculus, C2C12, inflexion point, from AUC of % wound confluence, read-out: Scratch Assay C2C12 Cells IP; for Scratch Assay C2C12 Cells max inhibition in %: value in parentheses
Method: Cell Cultures: C2C12 mouse myoblast cell line (ATCC, VA, USA) was maintained in culture in DMEM media supplemented with 10% fetal bovine serum, 1 mM sodium pyruvate, 1.5 g/L sodium bicarbonate, and 100 IU of penicillin, […] of streptomycin. The cells were then differentiated into myotubes with DMEM supplemented with 2% horse serum for 3 days in 24 well ImageLock™ plate (Essen Instruments, Mich., USA).
Scratch wound assays are commonly used to assess the effects of drugs and drug candidates on the cellular proliferation and/or migration associated with wound closing. The IncuCyte™ system (Essen Instruments, Mich., USA), an automated imaging platform, provides ongoing, real-time images and quantitative data generated throughout the wound-closing process. Cells were maintained in 24 well ImageLock™ (Essen Instruments, Mich., USA) at 37° C. and […], until a confluent monolayer was achieved. A single scratch wound was then created in each well using the Essen Woundmaker™ (Essen Instruments, Mich., USA). It induced a mechanical scratch of the cell monolayer using plastic pipette tips (10-20 μl pipette tips, Eppendorff). Dead cells and other debris produced by the scratch were immediately washed with regular growth media. Cells were then treated with pharmacological agents and were placed into the IncuCyte™ at 37° C. and […], for two to three days. During this time, the wound area within each well was repeatedly imaged at fixed time intervals (every three hours). The IncuCyte™ scratch wound software generates a “wound mask” for each well. An initial wound mask is created for the first image (at time 0) that clearly delineates the border of the wound. A revised mask is generated for each subsequent image to track wound closure. Wound closure can be automatically monitored using the wound confluence (% confluence). Wound confluence can be graphed over time to evaluate the characteristics of wound closing in the presence of pharmacological agents.
The calculation of the area under the curve (AUC) of the % confluence function of the time gave a quantitative measurement of compounds efficacy on the scratch wound closing. Compounds were titrated in quadruplicate at 5 points concentration starting at […] with a two-fold increment. The percentage of inhibition was calculated from the AUCs at each dose in comparison with the AUCs of the control wells (1% DMSO). Concentration-response curves were represented and the concentrations at the inflexion point (IP) were calculated. The maximum effect was given by the maximum percent inhibition.

Jak2 = target: T2, Jak2 (Homo sapiens, UniProt O60674); experiment: Jak2 kinase counterscreen enzymatic assay (TR-FRET); type: biochemical; conditions: 5 μM ATP
T2 construct: purchased Cell Signaling, USA
Method: Counterscreen assays were developed for the tyrosine kinases src kinase and jak2 kinase, with a format essentially identical to the EphA4 kinase TR-FRET format. Jak2 (50 ng) (Cell Signaling, USA) was incubated with 0.5 μM of biotinylated FLT3 peptide (Cell Signaling, USA) in presence of 5 μM of ATP (Sigma). P60c-src (10 U/well) (Upstate biotechnology, USA) was incubated with biotinylated Poly(Glu Tyr) peptide (100 nM) in presence of 0.5 μM of ATP. The enzymatic reaction was stopped after 60 min by adding 15 mM EDTA. The detection reaction and energy transfer signal measurements were similar to those previously described. Results were expressed as ratios of the absorbencies 665/615.
as §1

T2 sequence (O60674 whole entry, species assumed): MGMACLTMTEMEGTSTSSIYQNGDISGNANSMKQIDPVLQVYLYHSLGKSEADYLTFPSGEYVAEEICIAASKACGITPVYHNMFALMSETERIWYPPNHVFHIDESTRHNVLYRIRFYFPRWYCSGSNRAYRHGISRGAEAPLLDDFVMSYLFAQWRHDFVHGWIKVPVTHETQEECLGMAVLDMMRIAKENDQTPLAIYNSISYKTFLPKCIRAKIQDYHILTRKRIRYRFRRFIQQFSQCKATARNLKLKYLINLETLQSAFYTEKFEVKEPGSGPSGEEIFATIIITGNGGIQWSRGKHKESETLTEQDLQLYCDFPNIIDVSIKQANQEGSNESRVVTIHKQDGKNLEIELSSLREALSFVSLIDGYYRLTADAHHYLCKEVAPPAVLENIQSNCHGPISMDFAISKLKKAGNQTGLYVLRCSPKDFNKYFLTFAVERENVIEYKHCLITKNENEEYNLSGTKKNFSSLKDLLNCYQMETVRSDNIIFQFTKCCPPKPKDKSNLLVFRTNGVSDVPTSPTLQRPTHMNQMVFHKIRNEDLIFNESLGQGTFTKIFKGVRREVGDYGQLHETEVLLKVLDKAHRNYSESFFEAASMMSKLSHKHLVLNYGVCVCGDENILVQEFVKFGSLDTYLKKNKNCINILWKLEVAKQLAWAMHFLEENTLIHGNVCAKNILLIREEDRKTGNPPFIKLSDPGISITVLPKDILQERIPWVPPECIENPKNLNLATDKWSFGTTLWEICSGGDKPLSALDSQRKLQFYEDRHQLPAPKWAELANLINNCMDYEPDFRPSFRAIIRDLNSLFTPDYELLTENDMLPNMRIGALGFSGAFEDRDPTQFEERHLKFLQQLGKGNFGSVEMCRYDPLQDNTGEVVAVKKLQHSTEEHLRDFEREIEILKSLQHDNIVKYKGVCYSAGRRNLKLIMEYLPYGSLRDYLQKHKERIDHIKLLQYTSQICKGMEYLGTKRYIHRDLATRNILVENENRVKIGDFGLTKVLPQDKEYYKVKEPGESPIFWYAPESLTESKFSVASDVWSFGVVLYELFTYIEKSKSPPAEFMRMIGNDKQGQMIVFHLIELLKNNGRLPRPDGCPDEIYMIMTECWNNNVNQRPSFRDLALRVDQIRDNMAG

Structure (SMILES) | IC50 (EphA4 kinase) | EphA4 Kinase max inhibition in % (EphA4 kinase) | IC50 [1] | Scratch Assay C2C12 Cells max inhibition in % [1] | IC50 (Jak2)
Cc1ccc(NC(=O)c2cccc(C(F)(F)F)c2)cc1-c1ccc(O)c(NC=O)c1 [Example 133] | 4.8 µM | 93% | 6 µM | 42% | > 100 µM
Cc1ccc(NC(=O)c2cccc(C(F)(F)F)c2)cc1-c1ccc(-n2cccn2)cc1 [Example 120] | 1.59 µM | 70% | 3.1 µM | 43% | > 100 µM

Source: US20100197688A1, “EPHA4 RTK INHIBITORS FOR TREATMENT OF NEUROLOGICAL AND NEURODEGENERATIVE DISORDERS AND CANCER” (priority 2008, published 2010)
